The results in this text go back to a melting point compilation (Tetko et al.; mined from patent text by program, amines drawn as free bases though some values may be those of a salt).

By melting point is commonly meant the temperature, or range, at which the solid turns liquid. In turn, `O=S(=O)(c1ccccc1)c1c[nH]c2c(CCN3CCN(Cc4ccccc4)CC3)cccc12` came in with a melting point of 80 to 82 °C.
`CC(C)(C)OC(=O)N[C@H](Cc1cn(Cc2ccccc2)c2ccccc12)C(=O)O` came in with a melting point of 164 to 165 °C.
For the molecule `OCC(CO)Cc1cccc(Br)c1`, the melting point was 61 to 63 °C.
The molecule `CC(=O)Oc1c(C(=O)c2ccccc2Cl)c(C)nn1C` registered a melting point of 78 to 79 °C.
As to `c1ccc(P(c2ccccc2)c2cccc3c2-c2c(cccc2P(c2ccccc2)c2ccccc2)OCCCO3)cc1`, the melting point amounted to 85 °C.
Next, `CCCCCCCCOC(=O)NCCC(=O)O`: 70 to 72 °C; `CCOC(=O)c1ccc(N(CCOc2ccc(C#N)c3ccccc23)C(=O)C(F)(F)F)cc1`: 150 to 151 °C.
Consider `CCOC(=O)C(Cc1ccccc1)NC(=O)N(N(CCCl)S(C)(=O)=O)S(C)(=O)=O` (stereo unspecified), for which the melting point fell in the range of 106 to 107 °C.
Next, `CC(N)C(Cc1ccc(OCc2ccccc2)cc1)CC(O)c1ccccc1F` (stereo unspecified): 162 to 163 °C.
Regarding `COc1ccc([C@@H]2CCCC[C@H]2C#N)c(OC)c1OC` (relative stereo), the melting point is 69 to 72 °C.
Next, `CC1CC(N)=NN1c1ccccc1` (stereo unspecified): 104 to 106 °C; `CC(=O)c1ccc(Nc2nc(N)c(C(=O)c3sccc3C)s2)cc1`: 171 to 172 °C.
The molecule `CCC(NC(=O)OCc1ccccc1)C(=O)Nc1ccc(-n2nc(C(F)(F)F)cc2C(F)(F)F)cc1` (stereo unspecified) registered a melting point of 158 to 160 °C.
Turning to `CCOC(=O)c1ccc(Cl)c(S(=O)(=O)Cl)c1`, the melting point was in the range of 143 to 145 °C.
`CCCc1cc(C(O)=S)cc(N)c1Cc1ccccc1` gave a melting point of 151 to 152 °C.
The molecule `CN1CCN(C(=O)c2ccc(N)cc2C(F)(F)F)CC1` registered a melting point of 154 to 156 °C.
`O=C(Cc1ccc(I)cc1)N1CCOCC1` returned a melting point of 114 to 117 °C.
For `OCCNc1cc(Nc2ccc(Oc3ccccc3)cc2)ncn1` the value was 154 to 156 °C; for `COC(=O)c1n[nH]cc1[N+](=O)[O-]`, 115 to 117 °C; for `COC(=O)COc1ccc(C(=O)NNC(=O)c2ccc(C(=N)SC)cc2)cc1`, 208 to 210 °C.
`CC(C)(C)OC(=O)NC(C)(C)c1ccc(-c2nc(Nc3ccc(CCn4ccnc4)cc3)ncc2C#N)cc1` had a melting point of 124 °C.
As to `CC1(C)CCC(C)(C)c2cc(NC(=O)c3ccc(C(=O)O)cn3)ccc21`, the melting point was 206 to 207 °C.
For `CCOC(=O)C1CN(C(=O)c2ccccc2)CC1c1ccc(NC(=O)Cc2ccc(NC(=O)Nc3ccccc3C)c(OC)c2)cc1` (stereo unspecified) the value was 130 °C; for `CC(=NOC(=O)N(C)C)C1=CCCN(C)C1`, 54 to 55 °C; for `Cn1ccc2c1CCn1ccnc1C2=C1CCN(C2CCN(C(=O)c3cc(C(F)(F)F)cc(C(F)(F)F)c3)C(Cc3ccccc3)C2)CC1` (stereo unspecified), 133 °C.
As to `CCCNC(=O)c1ccc(/C=C(\C)c2ccc3c(c2)C(C)(C)CCO3)cc1`, the melting point fell in the range of 138 to 139 °C.
`CN(C)CCCOc1ccc(-c2nnc(CSCCOc3ccccc3)o2)cc1` registered a melting point of 70 °C.
As for `CC(=O)SCC(Cc1ccccc1)C(=O)Nc1ccc(C(N)=O)cc1` (stereo unspecified), the melting point was 195 to 197 °C.
Next, `COn1c(Br)c(Br)c(C#N)c1-c1ccc(Cl)cc1`: 190 °C.
`Cc1c(NC(=O)c2ccc(CC(=O)C3CC3)cc2)ccc2cc(CN3CCCC3)cnc12` registered a melting point of 200 to 201 °C.
In turn, `C(#Cc1cnc2ccccc2c1)CCN1CC=C(c2ccccc2)CC1` returned a melting point of 94.3 to 95.8 °C.
In turn, `Cc1cc(=O)n2nc(SCc3ccc(Cl)cc3)sc2n1` came in with a melting point of 138 to 140 °C.
`Cc1ccccc1-n1cnc(OC(C)C(=O)O)n1` (stereo unspecified) registered a melting point of 151 to 153 °C.
`COc1cc(Nc2ncnc3cc(OCC4CCCCO4)c(OC)cc23)c(OC)cc1Cl` (stereo unspecified) returned a melting point of 203 to 209 °C.
For `CNc1cc(Br)nc(S(=O)(=O)c2ccc(N)cc2)c1` the value was 158 to 160 °C; for `CCCCc1nn(-c2cccc(N)c2)c(=O)n1Cc1ccc(-c2ccccc2S(=O)(=O)NC(=O)c2ccccc2Cl)cc1`, 137 to 139 °C; for `Cc1ccsc1C(=O)c1cccn1N1C(=O)c2ccccc2C1=O`, 221 to 223 °C.
Next, `O=C1NC(=O)C(Cc2ccc(OCCON=Cc3cncc(-c4ccccc4)c3)cc2)S1` (stereo unspecified): 160 to 161 °C; `O=C(O)COc1cccc2c1CCc1sc(SC(c3ccccc3)c3ccccc3)nc1-2`: 176 to 179 °C; `COCCOc1cccc2c(Nc3ccccc3C)c(C(=O)C(C)C)cnc12`: 68 to 70 °C.
In turn, `COc1ccc(C(=O)N[C@H](Cc2ccc(C(F)(F)F)cc2)[C@@H](O)c2ccc(F)cc2)cc1` (racemic) showed a melting point of 192 to 193 °C.
Molecule `CN1CCN2c3ccccc3Cn3c(c(CO)c4ccccc43)C2C1` (stereo unspecified) registered a melting point of 184 to 189 °C.
For `CCNC(=O)c1c(Cl)ccc(N(C)C)c1[Si](C)(C)C` the value was 179 to 180 °C; for `COC(=O)CCCCCNC(=O)c1cccc(OC)c1O`, 69 to 70 °C.
For `COC(=O)c1ccc2nc3n(c(=O)c2c1)CCC3=Cc1ccccc1` the value was 224 to 227 °C.
With `CC(C)C(c1cncnc1C#N)N(C)C(=O)Cc1ccccc1` (stereo unspecified), the melting point fell in the range of 80 to 81 °C.
`CC(C)(C)OC(=O)c1cc[nH]c1` yielded a melting point of 82 to 84 °C.
In turn, `Cc1cn2cccc(CCl)c2n1` registered a melting point of 110 to 112 °C.
For the molecule `COc1ccc(S(=O)(=O)C(C)(CCCCN2C(=O)c3ccccc3C2=O)C(=O)NO)cc1` (stereo unspecified), the melting point lay in the range of 146 to 148 °C.
Consider `O=C(O)CCSc1ccccc1CNC(=O)C1Cc2ccccc2N1S(=O)(=O)c1ccc(-c2cccc(C(F)(F)F)c2)cc1` (stereo unspecified), for which the melting point is 85 to 89 °C.
For `CCNc1nc(Nc2ccccc2)ncc1C(=O)OCC` the value was 145 to 147 °C; for `CN1CCN(c2ccc(I)nn2)CC1`, 149 °C.
Next, `O=C1NC(=O)C2(C=CC=C3OCC=C32)N1` (stereo unspecified): 245 to 248 °C; `CC(C)OC(=O)c1cc(-n2c(=O)c3c(n(C)c2=O)CCCC3)ccc1Cl`: 136 to 138 °C; `CC(C)=CCOc1ccc(C(=O)C=Cc2cccs2)c(O)c1`: 100 to 102 °C.
Regarding `CCOC(Cn1cncn1)(c1ccc(F)cc1F)C(F)(F)S(=O)(=O)CCO` (stereo unspecified), the melting point was 150 to 153 °C.
In turn, `COc1ccc(C(=O)Nc2c(Cl)cncc2Cl)c2c1OCC2CC(=O)Nc1c(Cl)cncc1Cl` (stereo unspecified) came in with a melting point above 300 °C.
Molecule `Cc1cn(-c2cc3c(cc2C(F)(F)F)[nH]c(=O)c2n[nH]c(=O)n23)c(C)n1` returned a melting point above 330 °C.
For `CCOC(=O)COc1ccc(Cn2c(-c3ccc(Cl)cc3)c(C)c3cc(OCc4ccccc4)ccc32)cc1` the value was 99 to 101 °C; for `CCOC(=O)c1ccccc1Nc1ccccc1O`, 105 to 106 °C; for `CS(=O)(=O)N1C[C@@H](P(=O)(c2ccccc2)c2ccccc2)C[C@H]1CO`, 138 to 139 °C.
Next, `Nc1nccc(-c2c(-c3ccc(F)cc3)ncn2C2CCNCC2)n1`: 199 to 200 °C; `CC1=C(C)C(=O)N(CC(=O)N2c3ccccc3N(Cc3ccccc3)C(=O)[C@H]3CCC[C@H]32)C1=O` (relative stereo): 196 to 200 °C.
In the case of `COC(=O)c1cc([N+](=O)[O-])c(Oc2cc(C)cc(C)c2)c(S(N)(=O)=O)c1`, the melting point was 197 to 198 °C.
With `Cc1ccc(-c2ccc(C(=O)Nc3ccc4cc(CN5CCCCCC5)cnc4c3)cc2)cc1`, the melting point is 209 °C.
With `CCn1cc(C(=O)O)c2ccc(Cl)cc21`, the melting point fell in the range of 225 to 227 °C.
Next, `OC1c2cc(OCc3ccc4ccccc4n3)ccc2OCC1Cc1c[nH]c2ccccc12` (stereo unspecified): 60 °C.
Next, `N#Cc1ccc(N=C=O)cc1Cl`: 198 to 201 °C; `COc1ccc(C(C)=NOCCOc2ccc(CC3SC(=O)NC3=O)cc2)cn1` (stereo unspecified): 148 to 149 °C; `OC(c1ccc(Cl)cc1)(c1ccc(Cl)cc1)c1nccn1Cc1ccccc1`: 167 to 168 °C.
`CSc1nc(=O)c2cccc3c2n1-c1cc(C(F)(F)F)ccc1S3` gave a melting point of 229 to 231 °C.
Molecule `CCOC(=O)C1(C(=O)OCC)CCC2(CC1)NCCc1cc(O)c(O)cc12` yielded a melting point of 180 to 181 °C.
Next, `CCC(=O)NS(=O)(=O)c1cccc(-c2cc(-c3nc(-c4ccc(C(F)(F)F)nc4)cc(C(F)(F)F)n3)ccn2)c1`: 242 °C.
For `COC(F)(F)C(F)(F)C(N)=O` the value was 78 to 80 °C.
Regarding `Cn1ccnc1Sc1cccc(-c2nc(=O)c3ccccc3s2)n1`, the melting point was found to be 172 °C.
Next, `CCC(=O)c1ccc2c(c1)C(C(=O)Nc1cccc(C(=O)Nc3ccccc3)c1)C(=O)N2CC` (stereo unspecified): 179 to 180 °C; `N=c1c2sc(=S)n(-c3ccccc3)c2ncn1NC(=O)c1ccco1`: 228 °C.
`CCCCCCCCCCCCCCOC(=O)c1ccc(Cl)c(NC(=O)C(C(=O)c2ccccc2)N2C(=O)c3ccccc3C2=O)c1` (stereo unspecified) showed a melting point of 81 to 82 °C.
For `Nc1nc2c(s1)CCN(CC=Cc1cc(Br)c(N)c(Br)c1)CC2` the value was 198 to 199 °C; for `CCCCCCOc1ccc(NC(=O)c2cnc(C(=O)OC)c(OC)c2)cc1`, 118 to 119 °C.
For `CCOP(=O)(OCC)C(Nc1nc2ccccc2s1)P(=O)(OCC)OCC` the value was 165 to 167 °C; for `Oc1ccc2nc(-n3ccnc3)nc(NCc3ccccc3)c2c1`, 230 °C; for `O=S(=O)(c1ccc(Cl)cc1)C(CCCCCCO)c1cc(F)ccc1F` (stereo unspecified), 77 to 79 °C.
`Nc1cc(-c2nnc(CCc3cccc(C(F)(F)F)c3)o2)ccn1` came in with a melting point of 161 to 163 °C.
Take `O=C1Nc2ccccc2C(c2ccccc2F)=NC1Cc1cccs1` (racemic): the melting point lay within 189 to 191 °C.
For `COc1ccc([N+](=O)[O-])c2c1CCC(C(=O)Nc1ccc(N3CCOCC3)cc1)C2` (stereo unspecified), the melting point lay within 251 to 253 °C.
